Experimental data as given in paper PMC8436411 (ACS Medicinal Chemistry Letters, 2021).
Converted amounts (≈) assume the structure as drawn. “And” between values parts separate entries of the source, which are not always exact repeats. Equal values may be shown once. Read-outs that look alike come from different tables or passages of the source.

Assays:
[1] = test system: S. aureus (ATCC 29213); settings: Table S3; ref 10 (SI); cited from earlier work
[2] = test system: E. coli (ATCC 25922); settings: Table S3; ref 10 (SI); cited from earlier work
[3] = test system: E. coli D22; settings: Table S3; mutation in the lpxC gene that increases membrane permeability; ref 10 (SI); cited from earlier work
[4] = test system: E. coli N43 (CGSC no. 5583); settings: Table S3; AcrA knockout strain; ref 10 (SI); cited from earlier work
[5] = test system: MRSA (QA-11.7); settings: Table S3; ref 10 (SI); cited from earlier work
[6] = test system: Salmonella alachua RDK 030c (QA-1482/04); settings: Table S3; ref 10 (SI); cited from earlier work
[7] = test system: Pseudomonas aeruginosa RDK 184 (DSM 939); settings: cited from earlier work; for MIC P. aeruginosa RDK 184 (DSM 939): Table S3, ref 10 (SI)
[8] = test system: Streptococcus agalactiae RDK 047 (QA-990/02); settings: Table S3; ref 10 (SI); cited from earlier work
[9] = test system: Enterococcus faecalis DRK 057 (ATCC 29212); settings: Table S3; ref 10 (SI); cited from earlier work
[10] = biological target: T1, S. aureus DNA gyrase (Staphylococcus aureus, UniProt P20831); assay: DNA gyrase supercoiling inhibition assay (S. aureus); format: biochemical; settings: mean of two independent measurements ± SD
T1 construct: purchased Inspiralis (Norwich, UK)
T1 sequence (P20831 whole entry, looked up): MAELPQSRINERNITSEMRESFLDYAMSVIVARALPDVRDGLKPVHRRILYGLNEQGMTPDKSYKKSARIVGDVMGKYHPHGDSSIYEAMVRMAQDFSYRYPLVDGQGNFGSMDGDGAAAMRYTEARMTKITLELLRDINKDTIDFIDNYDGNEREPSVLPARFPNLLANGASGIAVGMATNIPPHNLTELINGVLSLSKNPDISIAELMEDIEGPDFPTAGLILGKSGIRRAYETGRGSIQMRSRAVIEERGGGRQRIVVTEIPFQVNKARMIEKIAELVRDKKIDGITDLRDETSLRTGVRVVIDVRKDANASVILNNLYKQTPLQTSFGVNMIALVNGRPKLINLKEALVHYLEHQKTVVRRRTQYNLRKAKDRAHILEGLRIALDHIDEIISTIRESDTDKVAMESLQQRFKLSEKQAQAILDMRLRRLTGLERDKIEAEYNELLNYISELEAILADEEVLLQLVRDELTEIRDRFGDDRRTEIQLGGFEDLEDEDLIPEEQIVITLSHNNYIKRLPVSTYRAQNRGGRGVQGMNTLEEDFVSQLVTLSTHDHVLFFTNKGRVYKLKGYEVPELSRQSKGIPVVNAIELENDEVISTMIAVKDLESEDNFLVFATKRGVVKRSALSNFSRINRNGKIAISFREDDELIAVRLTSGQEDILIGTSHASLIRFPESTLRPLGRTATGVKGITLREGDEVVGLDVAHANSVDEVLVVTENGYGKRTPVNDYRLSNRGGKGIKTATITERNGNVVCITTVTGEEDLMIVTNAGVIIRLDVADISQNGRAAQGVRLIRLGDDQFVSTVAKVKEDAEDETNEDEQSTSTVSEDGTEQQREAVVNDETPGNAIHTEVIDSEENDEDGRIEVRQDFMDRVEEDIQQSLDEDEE
Procedure: We synthesized and biologically evaluated ten new compounds. We determined their inhibitory activity, expressed as IC50 values, on both Gram-positive S. aureus and Gram-negative E. coli bacterial enzymes (DNA gyrase and topo IV), respectively. The in vitro antibacterial activity, expressed as minimum inhibitory concentration (MIC), was determined against broad spectrum of bacteria, including Gram-positive (Staphylococcus aureus, methicillin-resistant Staphylococcus aureus, Streptococcus agalactiae, and Enterococcus faecalis) and Gram-negative strains (Escherichia coli, Salmonella alachua, Pseudomonas aeruginosa, and Klebsiella pneumoniae), enriched with various MRSA strains resistant to various antibiotics as well as E. coli strains with increased membrane permeability and lack of efflux pump, as well. Furthermore, the selectivity of compounds for bacterial enzyme compared to the orthologous human topoisomerase IIα was also considered. The in vitro safety profile was determined by cytotoxicity assessment on human umbilical vein endothelial cell lines (HUVEC) and HepG2 liver cancer cell lines.
Determination of DNA gyrase and topoisomerase IV inhibitory activities
To determine the IC50 values of the compounds, a Gyrase Supercoiling High Throughput Plate assay kit and a TopoIV Relaxation High Throughput Plate assay kit, commercially available from Inspiralis (Norwich, UK), were used for S. aureus and E. coli. The assays were performed on black streptavidin-coated 96-well microtiter plates (Thermo Scientific Pierce, Norwich, UK) and the wells were first […]
BSA and 0.05% [v/v] Tween-20). Biotinylated oligonucleotide diluted with the wash buffer was then immobilized in each well and the excess was removed with the wash buffer. 1.5 U of the enzyme S. aureus or E. coli DNA gyrase (topoIV) was incubated together with 0.75 μg of relaxed (supercoiled) pNO1 plasmid as substrate in the presence of 3 μl inhibitor solution in 10% DMSO and 0.008% Tween-20 at 37°C for 30 min in a final reaction volume of 30 μl in the assay buffer (S. aureus DNA gyrase: 40 mM HEPES.KOH (pH 7.6), 10 mM magnesium acetate, 10 mM DTT, 2 mM ATP, 500 mM potassium glutamate and 0.05 mg/ml albumin; E. coli DNA gyrase: 35 mM Tris.HCl (pH 7.5), 24 […]
mg/ml albumin; S. aureus topo IV: 50 mM Tris.HCl (7.5), 5 mM MgCl 2, 5 mM DTT, 1.5 mM ATP, 350 mM potassium glutamate and 0.05 mg/ml albumin; E. coli topo IV: 40 mM HEPES.KOH (pH 7.6), 100 mM potassium glutamate, 10 mM magnesium acetate, 10 mM DTT, 1 mM ATP and 50 μg/ml albumin). The reaction was stopped by adding the TF buffer (50 mM NaOAc (pH 4.7), 50 mM NaCl and 50 mM MgCl2) to allow triplex formation (biotin oligonucleotide plasmid) for another 30 min. Finally, the unbound plasmid was washed off using the TF buffer and the Promega Diamond dye was added to T10 buffer (10 mM Tris-HCl (pH 8.0), 1 mM EDTA) solution. After 15 min the solution […]
Two inhibitor concentrations of 100 and 1 μM were used for pre-screening. The IC 50 values […]
(IC50) was calculated by nonlinear regression-based fitting of the inhibition curves using the log [inhibitor] versus response-variable slope (four parameters) – symmetrical equation, in GraphPad Prism 6.0 software (GraphPad Software, CA, USA). The IC50 value represents the average of two independent measurements.
The minimum inhibitory concentrations (MICs) were determined using the broth micro-dilution method in 96-well plate format according to the Clinical and Laboratory Standards Institute

[11] = biological target: Human topoisomerase IIα (Homo sapiens, UniProt P11388); assay: Human topoisomerase IIα residual activity; format: biochemical; settings: residual activity at 10 μM compound; mean ± SD, two independent experiments; read-out: Human topoisomerase IIα (%RA)
Chain of Human topoisomerase IIα (P11388 whole entry): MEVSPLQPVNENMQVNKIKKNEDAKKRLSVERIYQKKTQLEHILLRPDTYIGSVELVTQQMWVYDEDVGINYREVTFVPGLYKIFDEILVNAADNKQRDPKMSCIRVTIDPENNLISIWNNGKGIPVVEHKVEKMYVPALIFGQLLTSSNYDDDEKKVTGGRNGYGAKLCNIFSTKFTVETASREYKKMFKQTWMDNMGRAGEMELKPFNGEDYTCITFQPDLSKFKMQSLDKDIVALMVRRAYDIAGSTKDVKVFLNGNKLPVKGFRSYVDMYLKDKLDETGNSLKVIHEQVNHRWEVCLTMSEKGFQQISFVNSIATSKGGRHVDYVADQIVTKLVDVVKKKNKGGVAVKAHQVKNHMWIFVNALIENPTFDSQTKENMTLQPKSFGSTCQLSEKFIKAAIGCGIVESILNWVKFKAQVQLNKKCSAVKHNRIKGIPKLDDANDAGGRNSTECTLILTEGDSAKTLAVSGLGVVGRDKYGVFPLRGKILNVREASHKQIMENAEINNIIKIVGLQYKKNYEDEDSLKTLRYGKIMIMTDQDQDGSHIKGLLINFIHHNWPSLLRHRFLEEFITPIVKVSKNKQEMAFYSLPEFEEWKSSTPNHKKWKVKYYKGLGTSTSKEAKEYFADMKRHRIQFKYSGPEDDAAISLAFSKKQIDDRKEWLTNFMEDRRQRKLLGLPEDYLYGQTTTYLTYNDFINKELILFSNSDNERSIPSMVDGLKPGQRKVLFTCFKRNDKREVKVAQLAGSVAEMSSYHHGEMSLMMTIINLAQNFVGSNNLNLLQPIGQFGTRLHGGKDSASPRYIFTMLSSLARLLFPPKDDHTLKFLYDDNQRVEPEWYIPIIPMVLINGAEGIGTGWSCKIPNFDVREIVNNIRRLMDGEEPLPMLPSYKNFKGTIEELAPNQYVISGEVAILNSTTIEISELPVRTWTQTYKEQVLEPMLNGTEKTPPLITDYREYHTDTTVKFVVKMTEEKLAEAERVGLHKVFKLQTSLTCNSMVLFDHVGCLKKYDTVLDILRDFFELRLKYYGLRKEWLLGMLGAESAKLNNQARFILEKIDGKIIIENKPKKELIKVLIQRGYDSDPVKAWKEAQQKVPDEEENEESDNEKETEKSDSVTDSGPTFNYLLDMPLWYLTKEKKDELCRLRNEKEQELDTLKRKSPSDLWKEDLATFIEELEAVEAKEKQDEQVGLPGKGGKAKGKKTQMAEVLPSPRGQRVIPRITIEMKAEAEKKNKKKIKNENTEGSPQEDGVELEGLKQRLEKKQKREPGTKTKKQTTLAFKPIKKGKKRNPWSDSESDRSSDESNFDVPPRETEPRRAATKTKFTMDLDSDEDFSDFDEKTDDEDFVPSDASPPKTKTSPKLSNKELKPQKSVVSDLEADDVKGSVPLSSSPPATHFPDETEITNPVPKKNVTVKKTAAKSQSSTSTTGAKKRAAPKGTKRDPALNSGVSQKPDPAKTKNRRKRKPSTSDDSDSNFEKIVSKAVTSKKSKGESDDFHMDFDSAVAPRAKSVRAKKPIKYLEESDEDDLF

[12] = test system: E. coli (ATCC 25922); assay: microbe, parasite or virus in culture; settings: Escherichia coli, ATCC25922, read-out: MIC E. coli (ATCC 25922)
Procedure: (§1) The in vitro antibacterial activity, expressed as minimum inhibitory concentration (MIC), was determined against broad spectrum of bacteria, including Gram-positive (Staphylococcus aureus, methicillin-resistant Staphylococcus aureus, Streptococcus agalactiae, and Enterococcus faecalis) and Gram-negative strains (Escherichia coli, Salmonella alachua, Pseudomonas aeruginosa, and Klebsiella pneumoniae), enriched with various MRSA strains resistant to various antibiotics as well as E. coli strains with increased membrane permeability and lack of efflux pump, as well. […]
(§2) The minimum inhibitory concentrations (MICs) were determined using the broth micro-dilution method in 96-well plate format according to the Clinical and Laboratory Standards Institute […]
(§3) guidelines8 and European Committee on Antimicrobial Susceptibility Testing recommendations9. The bacterial suspension of the specific bacterial strain equivalent to the 0.5 McFarland turbidity standard was diluted with cation-adapted Mueller Hinton broth with TES (Thermo Fisher Scientific) to obtain a […]
(§4) The compounds dissolved in DMSO and inoculum were mixed together and incubated for 20 h at 35 °C.

[13] = test system: E. coli D22; assay: microbe, parasite or virus in culture; settings: Escherichia coli
Procedure: as §1, §2, §3, §4

[14] = test system: E. coli N43 (CGSC no. 5583); assay: microbe, parasite or virus in culture; settings: Escherichia coli
Procedure: as §1, §2, §3, §4

[15] = test system: Enterococcus faecalis DRK 057 (ATCC 29212); assay: microbe, parasite or virus in culture
Procedure: as §1, §2, §3, §4

[16] = test system: Klebsiella pneumoniae; assay: microbe, parasite or virus in culture
Procedure: as §1, §2, §3, §4

[17] = test system: MRSA (QA-11.7); assay: microbe, parasite or virus in culture; settings: Staphylococcus aureus, read-out: MIC MRSA (QA-11.7)
Procedure: as §1, §2, §3, §4

[18] = test system: MRSA (QA-12.1); assay: microbe, parasite or virus in culture; settings: Staphylococcus aureus, read-out: MIC MRSA (QA-12.1)
Procedure: as §1, §2, §3, §4

[19] = test system: Pseudomonas aeruginosa RDK 184 (DSM 939); assay: microbe, parasite or virus in culture
Procedure: as §1, §2, §3, §4

[20] = test system: S. aureus (ATCC 29213); assay: microbe, parasite or virus in culture; settings: Staphylococcus aureus, ATCC29213, read-out: MIC S. aureus (ATCC 29213)
Procedure: as §1, §2, §3, §4

[21] = test system: Salmonella alachua RDK 030c (QA-1482/04); assay: microbe, parasite or virus in culture
Procedure: as §1, §2, §3, §4

[22] = test system: Streptococcus agalactiae RDK 047 (QA-990/02); assay: microbe, parasite or virus in culture
Procedure: as §1, §2, §3, §4

## COc1ccc2nccc(CCN3CCC(NCc4ccc(Br)cc4)CC3)c2n1 [Compound 2]
[1]
  MIC S. aureus (ATCC 29213): 0.068 µM (≈ 0.031 µg/mL)
[2]
  MIC E. coli (ATCC 25922): 4.39 µM (≈ 2 µg/mL)
[3]
  MIC E. coli D2: 0.274 µM (≈ 0.125 µg/mL)
[4]
  MIC E. coli N43 (CGSC# 5583): 0.274 µM (≈ 0.125 µg/mL)
[5]
  MIC MRSA (QA-11.7): 0.136 µM (≈ 0.0619 µg/mL)
[6]
  MIC S. alachua RDK 030c (QA-1482/04): 35.1 µM (≈ 16 µg/mL)
[7]
  MIC P. aeruginosa RDK 184 (DSM 939): 281 µM (≈ 128 µg/mL)
[8]
  MIC S. agalactiae RDK 047 (QA-990/02): 1.098 µM (≈ 0.5 µg/mL)
[9]
  MIC E. faecalis DRK 057 (ATCC 29212): 2.20 µM (≈ 1 µg/mL)

## COc1ccc2nccc(CCN3CCC(NCc4ccc(Cl)cc4)CC3)c2n1 [Compound 1]
[1]
  MIC S. aureus (ATCC 29213): 0.304 µM (≈ 0.125 µg/mL)
[2]
  MIC E. coli (ATCC 25922): 9.73 µM (≈ 4 µg/mL)
[3]
  MIC E. coli D2: 4.87 µM (≈ 2 µg/mL)
[4]
  MIC E. coli N43 (CGSC# 5583): 1.22 µM (≈ 0.501 µg/mL)
[5]
  MIC MRSA (QA-11.7): 1.22 µM (≈ 0.501 µg/mL)
[6]
  MIC S. alachua RDK 030c (QA-1482/04): 77.9 µM (≈ 32 µg/mL)
[7]
  MIC P. aeruginosa RDK 184 (DSM 939): > 311 µM
  MIC Pseudomonas aeruginosa RDK 184 (DSM 939): >128 µg/mL
[8]
  MIC S. agalactiae RDK 047 (QA-990/02): 2.43 µM (≈ 0.999 µg/mL)
[9]
  MIC E. faecalis DRK 057 (ATCC 29212): 2.43 µM (≈ 0.999 µg/mL)

## COc1ccc2nccc(CCN3CCC(NCc4ccc(Br)c(F)c4F)CC3)c2n1 [Compound 10]
[10]
  IC50: 9 nM
[11]
  remaining activity at 10 µM: 98.11 ± 0.91%
[12]
  MIC: 8.14 µM and 4 µg/mL
[13]; D22, read-out: MIC E. coli D2
  MIC: 1.02 µM
[13]; D22, read-out: MIC E. coli D22
  MIC: 0.5 µg/mL
[14]; read-out: MIC E. coli N43 (CGSC no. 5583)
  MIC: 0.125 µg/mL
[14]; read-out: MIC E. coli N43 (CGSC# 5583)
  MIC: 0.254 µM
[15]; ATCC29212, read-out: MIC E. faecalis DRK 057 (ATCC 29212)
  MIC: 4.07 µM
[15]; ATCC29212, read-out: MIC Enterococcus faecalis DRK 057 (ATCC 29212)
  MIC: 2 µg/mL
[16]; read-out: MIC K. pneumoniae
  MIC: 130 µM
[16]; read-out: MIC Klebsiella pneumoniae
  MIC: 64 µg/mL
[17]
  MIC: 0.126 µM and 0.062 µg/mL
[18]
  MIC: 0.126 µM and 0.062 µg/mL
[19]; DSM939, read-out: MIC P. aeruginosa RDK 184 (DSM 939)
  MIC: > 260 µM
[19]; DSM939, read-out: MIC Pseudomonas aeruginosa RDK 184 (DSM 939)
  MIC: > 128 µg/mL
[20]
  MIC: 0.063 µM and 0.031 µg/mL
[21]; read-out: MIC S. alachua RDK 030c (QA-1482/04)
  MIC: 32.6 µM
[21]; read-out: MIC Salmonella alachua RDK 030c (QA-1482/04)
  MIC: 16 µg/mL
[22]; read-out: MIC S. agalactiae RDK 047 (QA-990/02)
  MIC: 4.07 µM
[22]; read-out: MIC Streptococcus agalactiae RDK 047 (QA-990/02)
  MIC: 2 µg/mL
